This is an account of results in US11839679B2, “Gamma-diketones for treatment and prevention of aging skin and wrinkles” (BioSplice Therapeutics, Inc., priority 2014, dated 2023).

The assay has as its system fine lines, wrinkles in the outer canthus of the eyes (crow's feet area). Briefly: Change in Roughness and Wrinkle Depth via Visioscan, Example 2. Particulars: Topical 0.05% in Oil (Cohort 2), 21 test subjects. The assay is classed as in vivo, human. The source says: Surface Evaluation of Living Skin Visioscan: The Visioscan (Courage and Khazaka) took a direct image of the living skin using a measuring head containing a CCD-camera and two metal halogen lamps positioned opposite each other in order to ensure even illumination of the measuring field on the skin (Skin Pharmacol Appl Skin Physiol (1999), 12(1-2), 1-11 and Cosmetic & Toiletries magazine (2009), 124(6), 51-54). The grey level distribution of the pixels in the image correspond to different phenomena (white pixels represent desquamation on the skin, dark pixels represent lines and wrinkles). The software with the Visioscan automatically calculates skin smoothness, skin roughness, scaliness and wrinkle parameters. Visioscan images were taken at the following time points: Baseline Day 0 (beginning of the study), Week 2, Week 4, Week 8, and Week 12 (end of the test).
The source data was Visioscan and PhotoGrammetrix Image Analysis readings along with subjective assessments, which were totaled and reported as average scores. Photographs were placed side by side as to compare the photographs of before and after application of the test product in the eye area. Wrinkle reduction analysis source data consisted of crow's feet area quantification in relative units (px), collected at baseline and, the week 2, 4, 8 and 12 evaluations. The data obtained via Visioscan and from PhotoGrammetrix Image Analysis was quoted as % differences from baseline at each of the previously described time points. A paired t-test analysis was conducted in order to compare the results of post test product application measurements to baseline measurements where applicable. Statistical significance was established if p≤(α=0.05) was calculated.
Four groups of women were recruited to evaluate and compare the efficacy of four anti-aging test products (targeting the periorbital eye area) intended to reduce the appearance of fine lines, wrinkles in the outer canthus of the eyes (crow's feet area) over a 12 week period. Wrinkle assessment was conducted instrumentally using a Visioscan image analysis system. Effectiveness of the test product was evaluated using panelist self-assessment via questionnaire responses. Each stage in the progression of treatments was photographically documented using High Resolution Scientifically Matched Photography technique. Image analysis was utilized to quantify changes in fine lines and crow's feet condition observed in the Scientifically Matched Photographs.
Subject Selection: • Number: Eighty three subjects (twenty or twenty one per group) to complete the study. • Sex: Females • Race: Caucasian/Asian/Hispanic • Age Range: 40 through 60 years old
Test samples: • Topical 0.15% of Compound #222 in Oil (a 50/50 mixture of Propylene Glycol Dicaprylate/Dicaprate and Caprylic/Capric Triglyceride) (Cohort 1) • Topical 0.05% of Compound #222 in Oil (a 50/50 mixture of Propylene Glycol Dicaprylate/Dicaprate and Caprylic/Capric Triglyceride) (Cohort 2) • Topical 0.15% of Compound #222 in PEG400 (Cohort 3) • Topical 0.05% of Compound #222 in PEG400 (Cohort 4)
The testing protocol and evaluation was the same as in Example 1.

Regarding `O=C(CCC(=O)c1ccc2c(c1)OCO2)c1ccccc1` [#222], where the note is “Week 8 vs baseline”, the “% Change in Roughness, Mean” value is −32.9%; the “% Change in Roughness, Median” value was −33.9%; the “% Change in Wrinkle Depth, Mean” value is listed as −58.0%; the “% Change in Wrinkle Depth, Median” value was −59.3%. In addition, where the note is “Week 8 vs baseline”, the “Change in Roughness, Mean” value is reported as −0.85; the “Change in Roughness, Median” value was −0.67; the “Change in Wrinkle Depth (×10^4), Mean” value is −0.89 ×10^4; the “Change in Wrinkle Depth (×10^4), Median” value is −0.79 ×10^4. Further, under “Week 12 vs baseline”, the “% Change in Roughness, Mean” value was −39.3%; the “% Change in Roughness, Median” value is listed as −40.9%; the “% Change in Wrinkle Depth, Mean” value is −54.1%; the “% Change in Wrinkle Depth, Median” value is reported as −63.5%. For the same compound, under “Week 12 vs baseline”, the “Change in Roughness, Mean” value is recorded as −1.01; the “Change in Roughness, Median” value is listed as −0.79; the “Change in Wrinkle Depth (×10^4), Mean” value is −0.92 ×10^4; the “Change in Wrinkle Depth (×10^4), Median” value is −0.85 ×10^4.
